Where “and” joins values, the source holds several entries; their conditions need not be identical. Equal entries are not always repeated. Toxic doses and inconclusive results are not listed.

In the experiment the test system is L1210 leukemia ip in BDF1 mice, survival T/C. The experiment in a line: NCI In Vivo Anticancer Drug Screen. Data for tumor model L1210 Leukemia (intraperitoneal) in B6D2F1 (BDF1) mice. The note with it: higher = longer survival. Summed up:
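Survival endpoint. Drug-treated group vs vehicle group, expressed as T divided by C. Tumor passaged by transplantation.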

Take `N/C(=N\O)c1cn(C2OC(CO)C(O)C2O)c2ncnc(N)c12` (stereo unspecified): the T/C (endpoint: mean survival time, dose: 0.2 mg/kg/injection, schedule: Q01DX015 (ip), vehicle: carboxymethylcellulose (CMC)) is 104 % of control; the T/C (endpoint: mean survival time, dose: 0.25 mg/kg/injection, schedule: Q01DX009 (ip), vehicle: saline) was 117 % of control; the T/C (endpoint: mean survival time, dose: 0.25 mg/kg/injection, schedule: Q03HX024 (ip), vehicle: saline) is 123 % of control; the T/C (endpoint: mean survival time, dose: 0.3 mg/kg/injection, schedule: Q01DX015 (ip), vehicle: carboxymethylcellulose (CMC)) was 117 % of control; the T/C (endpoint: mean survival time, dose: 0.39 mg/kg/injection, schedule: Q01DX009 (ip), vehicle: saline) was 150 % of control; the T/C (endpoint: mean survival time, dose: 0.44 mg/kg/injection, schedule: Q01DX015 (ip), vehicle: carboxymethylcellulose (CMC)) was 117 % of control. Also, the T/C is, setting by setting: (endpoint: mean survival time, dose: 0.5 mg/kg/injection, schedule: Q01DX005 (ip), vehicle: saline) 118 % of control; (endpoint: mean survival time, dose: 0.67 mg/kg/injection, schedule: Q01DX015 (ip), vehicle: carboxymethylcellulose (CMC)) 120 % of control; (endpoint: mean survival time, dose: 0.78 mg/kg/injection, schedule: Q01DX005 (ip), vehicle: saline) 111 % of control; (endpoint: mean survival time, dose: 0.78 mg/kg/injection, schedule: Q01DX009 (ip), vehicle: saline) 150 % of control; (endpoint: mean survival time, dose: 1.0 mg/kg/injection, schedule: Q03HX008 (ip), vehicle: saline) 160 % of control; (endpoint: mean survival time, dose: 1.0 mg/kg/injection, schedule: Q03HX024 (ip), vehicle: saline) 192 % of control. The T/C runs as follows: (endpoint: mean survival time, dose: 1.3 mg/kg/injection, schedule: Q01DX009 (ip), vehicle: saline) 159 % of control; (endpoint: mean survival time, dose: 1.56 mg/kg/injection, schedule: Q01DX005 (ip), vehicle: saline) 110 % of control; (endpoint: mean survival time, dose: 1.56 mg/kg/injection, schedule: Q01DX009 (ip), vehicle: saline) 204 % of control; (endpoint: mean survival time, dose: 2.0 mg/kg/injection, schedule: Q01DX009 (ip), vehicle: saline) 158 % of control; (endpoint: mean survival time, dose: 2.0 mg/kg/injection, schedule: Q03HX024 (ip), vehicle: saline) 102 % of control and 107 % of control; (endpoint: mean survival time, dose: 3.0 mg/kg/injection, schedule: Q01DX009 (ip), vehicle: saline) 151 % of control. Besides, the T/C was 121 % of control (endpoint: mean survival time, dose: 3.12 mg/kg/injection, schedule: Q01DX001 (ip), vehicle: other); 156 % of control (endpoint: mean survival time, dose: 3.12 mg/kg/injection, schedule: Q01DX005 (ip), vehicle: saline); 109 % of control (endpoint: mean survival time, dose: 3.12 mg/kg/injection, schedule: Q01DX009 (ip), vehicle: saline); 121 % of control (endpoint: mean survival time, dose: 3.13 mg/kg/injection, schedule: Q01DX001 (ip), vehicle: water); 117 % of control (endpoint: mean survival time, dose: 4.0 mg/kg/injection, schedule: Q01DX001 (ip), vehicle: saline); 152 % of control (endpoint: mean survival time, dose: 4.0 mg/kg/injection, schedule: Q01DX005 (ip), vehicle: saline). The T/C was 153 % of control and 180 % of control (endpoint: mean survival time, dose: 4.0 mg/kg/injection, schedule: Q01DX009 (ip), vehicle: saline); 96 % of control (endpoint: mean survival time, dose: 4.0 mg/kg/injection, schedule: Q01DX009 (oral), vehicle: saline); 122 % of control (endpoint: mean survival time, dose: 4.0 mg/kg/injection, schedule: Q08DX002 (ip), vehicle: saline); 124 % of control (endpoint: mean survival time, dose: 4.4 mg/kg/injection, schedule: Q01DX001 (ip), vehicle: carboxymethylcellulose (CMC)); 124 % of control (endpoint: mean survival time, dose: 5.0 mg/kg/injection, schedule: Q01DX001 (ip), vehicle: carboxymethylcellulose (CMC)); 158 % of control (endpoint: mean survival time, dose: 5.0 mg/kg/injection, schedule: Q01DX009 (ip), vehicle: saline). Moreover, the T/C by setting is: (endpoint: mean survival time, dose: 5.0 mg/kg/injection, schedule: Q01DX015 (ip), vehicle: carboxymethylcellulose (CMC)) 108 % of control; (endpoint: mean survival time, dose: 6.25 mg/kg/injection, schedule: Q01DX001 (ip), vehicle: other) 122 % of control; (endpoint: mean survival time, dose: 6.25 mg/kg/injection, schedule: Q01DX001 (ip), vehicle: water) 114 % of control; (endpoint: mean survival time, dose: 6.25 mg/kg/injection, schedule: Q01DX009 (ip), vehicle: saline) 113 % of control; (endpoint: mean survival time, dose: 8.0 mg/kg/injection, schedule: Q01DX001 (ip), vehicle: saline) 124 % of control; (endpoint: mean survival time, dose: 8.0 mg/kg/injection, schedule: Q01DX005 (ip), vehicle: saline) 150 % of control. Also, the T/C is 119 % of control and 121 % of control (endpoint: mean survival time, dose: 8.0 mg/kg/injection, schedule: Q01DX009 (ip), vehicle: saline); 95 % of control (endpoint: mean survival time, dose: 8.0 mg/kg/injection, schedule: Q01DX009 (oral), vehicle: saline); 151 % of control and 156 % of control (endpoint: mean survival time, dose: 8.0 mg/kg/injection, schedule: Q04DX003 (ip), vehicle: saline); 119 % of control (endpoint: mean survival time, dose: 16.0 mg/kg/injection, schedule: Q01DX001 (ip), vehicle: saline); 94 % of control (endpoint: mean survival time, dose: 16.0 mg/kg/injection, schedule: Q01DX001 (oral), vehicle: saline); 95 % of control (endpoint: mean survival time, dose: 16.0 mg/kg/injection, schedule: Q01DX009 (oral), vehicle: saline). Besides, the T/C is 186 % of control (endpoint: mean survival time, dose: 16.0 mg/kg/injection, schedule: Q04DX003 (ip), vehicle: saline); 151 % of control (endpoint: mean survival time, dose: 22.5 mg/kg/injection, schedule: Q01DX001 (ip), vehicle: saline); 157 % of control (endpoint: mean survival time, dose: 25.0 mg/kg/injection, schedule: Q01DX001 (ip), vehicle: other); 152 % of control (endpoint: mean survival time, dose: 25.0 mg/kg/injection, schedule: Q01DX001 (ip), vehicle: water); 97 % of control (endpoint: mean survival time, dose: 32.0 mg/kg/injection, schedule: Q01DX001 (oral), vehicle: saline); 94 % of control (endpoint: mean survival time, dose: 32.0 mg/kg/injection, schedule: Q01DX009 (oral), vehicle: saline). For the same compound, the T/C runs as follows: (endpoint: mean survival time, dose: 32.0 mg/kg/injection, schedule: Q08DX002 (ip), vehicle: saline) 154 % of control; (endpoint: mean survival time, dose: 50.0 mg/kg/injection, schedule: Q01DX001 (ip), vehicle: other) 150 % of control; (endpoint: mean survival time, dose: 50.0 mg/kg/injection, schedule: Q01DX001 (ip), vehicle: water) 159 % of control; (endpoint: mean survival time, dose: 64.0 mg/kg/injection, schedule: Q01DX001 (oral), vehicle: saline) 94 % of control; (endpoint: mean survival time, dose: 128.0 mg/kg/injection, schedule: Q01DX001 (oral), vehicle: saline) 90 % of control; (endpoint: median survival time, dose: 0.5 mg/kg/injection, schedule: Q01DX009 (ip), vehicle: saline) 118 % of control and 122 % of control. Besides, under “endpoint: median survival time, dose: 1.0 mg/kg/injection, schedule: Q01DX009 (ip), vehicle: saline”, the T/C is 122 % of control.
Consider `CCc1ccc(NC(=O)Nc2cccc(Cl)c2)cc1`, for which the T/C runs as follows: (endpoint: mean survival time, dose: 100.0 mg/kg/injection, schedule: Q01DX009 (ip), vehicle: Klucel (hydroxypropylcellulose) (HPC)) 92 % of control; (endpoint: mean survival time, dose: 100.0 mg/kg/injection, schedule: Q04DX003 (ip), vehicle: Klucel (hydroxypropylcellulose) (HPC)) 102 % of control; (endpoint: mean survival time, dose: 200.0 mg/kg/injection, schedule: Q01DX009 (ip), vehicle: Klucel (hydroxypropylcellulose) (HPC)) 89 % of control; (endpoint: mean survival time, dose: 200.0 mg/kg/injection, schedule: Q04DX003 (ip), vehicle: Klucel (hydroxypropylcellulose) (HPC)) 102 % of control; (endpoint: mean survival time, dose: 400.0 mg/kg/injection, schedule: Q01DX009 (ip), vehicle: Klucel (hydroxypropylcellulose) (HPC)) 99 % of control; (endpoint: mean survival time, dose: 400.0 mg/kg/injection, schedule: Q04DX003 (ip), vehicle: Klucel (hydroxypropylcellulose) (HPC)) 98 % of control.
Consider `COc1ccc(/C=N\N/C(N)=N\N=C\c2ccc(OC)cc2)cc1`, for which the T/C was 89 % of control (endpoint: mean survival time, dose: 15.0 mg/kg/injection, schedule: Q01DX Z (ip), vehicle: carboxymethylcellulose (CMC)); 97 % of control (endpoint: mean survival time, dose: 30.0 mg/kg/injection, schedule: Q01DX Z (ip), vehicle: carboxymethylcellulose (CMC)); 93 % of control and 101 % of control (endpoint: mean survival time, dose: 60.0 mg/kg/injection, schedule: Q01DX Z (ip), vehicle: carboxymethylcellulose (CMC)); 92 % of control (endpoint: mean survival time, dose: 120.0 mg/kg/injection, schedule: Q01DX Z (ip), vehicle: carboxymethylcellulose (CMC)); 100 % of control (endpoint: mean survival time, dose: 240.0 mg/kg/injection, schedule: Q01DX Z (ip), vehicle: carboxymethylcellulose (CMC)); 107 % of control (endpoint: mean survival time, dose: 240.0 mg/kg/injection, schedule: Q01DX Z (oral), vehicle: carboxymethylcellulose (CMC)). In addition, the T/C (endpoint: mean survival time, dose: 480.0 mg/kg/injection, schedule: Q01DX Z (ip), vehicle: carboxymethylcellulose (CMC)) is 90 % of control; the T/C (endpoint: mean survival time, dose: 480.0 mg/kg/injection, schedule: Q01DX Z (oral), vehicle: carboxymethylcellulose (CMC)) is 105 % of control; the T/C (endpoint: mean survival time, dose: 960.0 mg/kg/injection, schedule: Q01DX Z (oral), vehicle: carboxymethylcellulose (CMC)) was 104 % of control; the T/C (endpoint: mean survival time, dose: 1920.0 mg/kg/injection, schedule: Q01DX Z (oral), vehicle: carboxymethylcellulose (CMC)) was 102 % of control.

The record behind these values is PubChem BioAssay AID248 (DTP/NCI, 2004).
